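Five compound concentrations were applied to cells in 96-well plates for 48 hours; endpoints were derived by simple linear interpolation of the resulting dose-response curve. GI50 marks 50% less growth.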 The source made the active and inactive calls. No stated cut-off is given here; in the data, active = GI50 up to about 1.1 µM and inactive = higher.
Experiments:
Assay in all cases: NCI-60 cell line screen, 48 h
SN12C = system: SN12C
SK-MEL-5 = system: SK-MEL-5
Malme-3M = system: Malme-3M
CAKI-1 = system: CAKI-1
HOP-62 = system: HOP-62
SR = system: SR
SNB-19 = system: SNB-19
UO-31 = system: UO-31
HT-29 = system: HT-29
CCRF-CEM = system: CCRF-CEM
SW-620 = system: SW-620
NCI-H460 = system: NCI-H460
HOP-92 = system: HOP-92
HCT-15 = system: HCT-15
SF-539 = system: SF-539
ACHN = system: ACHN
EKVX = system: EKVX

Compound | GI50 (SN12C) | GI50 (SK-MEL-5) | GI50 (Malme-3M) | GI50 (CAKI-1) | GI50 (HOP-62) | GI50 (SR) | GI50 (SNB-19) | GI50 (UO-31) | GI50 (HT-29) | GI50 (CCRF-CEM) | GI50 (SW-620) | GI50 (NCI-H460) | GI50 (HOP-92) | GI50 (HCT-15) [µM] | GI50 (SF-539) | GI50 (ACHN) | GI50 (EKVX)
CCCN1C(=O)CNC(=O)c2[nH]cnc21 | > 100 µM (inactive) | > 100 µM (inactive) | > 100 µM (inactive) | > 100 µM (inactive) | > 100 µM (inactive) | > 100 µM (inactive) | > 100 µM (inactive) | > 100 µM (inactive) | > 100 µM (inactive) | > 100 µM (inactive) | > 100 µM (inactive) | > 100 µM (inactive) | > 100 µM (inactive) | > 100 | > 100 µM (inactive) | > 100 µM (inactive) | > 100 µM (inactive)
O=c1nc(N2CCCC2)nc(N2CCCC2)s1 | > 100 µM (inactive) | > 100 µM (inactive) | > 100 µM (inactive) | 97.9 µM (inactive) | > 100 µM (inactive) | > 100 µM (inactive) | > 100 µM (inactive) | 78.7 µM (inactive) | > 100 µM (inactive) | > 100 µM (inactive) | > 100 µM (inactive) | > 100 µM (inactive) | > 100 µM (inactive) | > 100 | > 100 µM (inactive) | > 100 µM (inactive) | > 100 µM (inactive)
Cc1c2ccncc2c(C)c2c1[nH]c1ccc(OC(C)C)cc12 | 1.06 µM (active) | 1.77 µM (inactive) | 1.58 µM (inactive) | 1.6 µM (inactive) | 1.35 µM (inactive) | 0.668 µM (active) | 1.59 µM (inactive) | 1.53 µM (inactive) | 1.32 µM (inactive) | 1.15 µM (inactive) | 0.547 µM (active) | 1.03 µM (active) | 1.51 µM (inactive) | 0.984 | 1.82 µM (inactive) | 1.29 µM (inactive) | 1.4 µM (inactive)
Cn1cnc(S[C@H]2[C@H]3C(=O)C=C4S[C@H]5C[C@]42C2=C(N5)C(=O)c4[nH]cc5c4C2=[N+]3CC5)c1C[C@H](N)C(=O)O | 3.56 µM (inactive) | 13.4 µM (inactive) | 3.72 µM (inactive) | 27 µM (inactive) |  | 19.1 µM (inactive) | 17.6 µM (inactive) | 17.5 µM (inactive) | 4.09 µM (inactive) | 17.1 µM (inactive) | 6.14 µM (inactive) | 27.5 µM (inactive) | 18.9 µM (inactive) | 30.8 | 16.5 µM (inactive) | 14.8 µM (inactive) | 17.7 µM (inactive)
COC(=O)C(=O)C(C(=O)C(=O)Nc1ccccc1C(N)=O)c1nc2ccc([N+](=O)[O-])cc2nc1O (stereo not given) | > 100 µM (inactive) | > 100 µM (inactive) | > 100 µM (inactive) | > 100 µM (inactive) | > 100 µM (inactive) | > 100 µM (inactive) | > 100 µM (inactive) | > 100 µM (inactive) | > 100 µM (inactive) | > 100 µM (inactive) | > 100 µM (inactive) | > 100 µM (inactive) | > 100 µM (inactive) | > 100 | > 100 µM (inactive) | > 100 µM (inactive) | > 100 µM (inactive)
COC(=O)CCC(=O)CC1CC(=O)C2CCCN12 (stereo not given) | > 100 µM (inactive) | > 100 µM (inactive) | > 100 µM (inactive) | > 100 µM (inactive) | > 100 µM (inactive) | > 100 µM (inactive) | > 100 µM (inactive) | > 100 µM (inactive) | > 100 µM (inactive) | > 100 µM (inactive) | > 100 µM (inactive) | > 100 µM (inactive) | > 100 µM (inactive) |  | > 100 µM (inactive) | > 100 µM (inactive) | > 100 µM (inactive)
